Measured values from patent US20040023924A1, “Use of xyloglucan polymers and oligomers, and derivative compounds, as phytosanitary products and biofertilizers” (priority 2000, published 2004).

Key:
[1] = system: Rubus fruticosus protoplasts; assay: Elicitation of an oxidative burst: generation of H2O2 (pyranine quenching); format: cell-based; conditions: 25° C.
Method: (§1) Preparation of Rubus fruticosus protoplasts according to Vargas-Rechia (1998). The protoplast yield is of the order of 70 to 85% of the initial number of cells used; the viability of the protoplasts, of the order of 90 to 95%, was checked using Evans blue indicator.
H2O2 assay according to Apostol et al. (1989). Incubation at different temperatures of 1.10^6 protoplasts in microplate wells in the presence of 2 μM pyranine λex 405 nm, λcm 512 nm), of the elicitor (0 to 100 μM): 2′-fucosyl-lactose (compound A), xyloglucan XXFGol, corresponding to the reduced form of fucosylated nonasaccharide of which the sugar X4 is in reduced form (compound B). The variations in pyranine fluorescence (ΔF512 min^−1) allow H2O2 assay.
Evaluation of the experimental data: The reaction rate is given by (ΔF512 min^−1). At least three kinetic curves are plotted per sample and per experimental condition. One point on the graph corresponds to the slope of the regression curve deduced from at least 6 kinetic curves.
The oxidative “burst” is evaluated according to the “quenching ” of the pyranine at 25° C.; the 100% reference value corresponds to the fluorescence in the controls (non-elicited protoplast suspensions)

[2] = system: Rubus fruticosus protoplasts; assay: Elicitation of an oxidative burst: generation of superoxide anion (Cyt c assay); format: cell-based; conditions: 25° C.; for Cytochrome c reduction response (100% = non-elicited controls): at 10 nM; for Optimal response, cytochrome c reduction (100% = non-elicited controls): at the optimal dose
Method: as §1
The Cyt c assay was carried out according to Nakanishi et al. (1991) in the following manner. Incubation at 25° C. of 4.10^6 protoplasts in the presence of Cyt c (100 μM), and of the elicitor (0 to 100 μM): 2′-fucosyl lactose (compound A), XXFGol (compound B).
Evaluation of the experimental data: The reaction rate is given by (AF340 min^−1). At least three kinetic curves are plotted per experimental condition. One point on the graph corresponds to the slope of the regression curve deduced from at least 6 kinetic curves.
The elicitation response is evaluated according to the cytochrome c reduction measured by the absorbance variation at […]; the 100% reference value corresponds to the reduction count of the controls (non-elicited protoplast suspensions).

[3] = system: β-D-xylosidase (EC 3.2.1.37); assay: Induction of a β-D-xylosidase response in elicited cells; format: cell-based, Acer pseudoplatanus L.; conditions: 50 nM elicitor; for β-D-xylosidase response R (activity in elicited cells/non-elicited control cells), maximal: 15 minutes; for β-D-xylosidase response: 42 hours; for β-D-xylosidase response R: after 1 hour
Method: Vegetable material: Acer pseudoplatanus L Cells in Suspension
Test: 2.10^6 Acer pseudoplatanus L. cells were elicited under circular stirring (80 rpm), in 25 ml of culture medium (without 2,4-D) by 50 nM of 2′-fucosyl lactose (compound A) or 50 nM of methyl α-L-Fuc (1→2) β-D-Gal (1→2) β-D-Xyl trisaccharide (compound B)(synthesized according to Lopez et al., 1994) or for a variable time (0 to 42 hours) in the presence or not in the presence of an effector: cycloheximide (1 μM), okadaic acid (5 nM), staurosporine (500 nM), or boroglycine (500 nM). The elicitation experiment is stopped by putting the cells in ice. The cells recovered after decantation and taken up in approximately 1 ml of elicitation buffer are the subject of a specific protein extraction.
D-glycosylhydrolase extraction. The enzyme extracts are prepared from elicited or non-elicited cells. The cells are homogenized at 0° C. in Tris-HCl buffer (50 mM pH 7.2) containing 1 M of NaCl with a Vibracell™ Bioblock sonicator, maximum power, for 3 times 1 minute. The homogenates are centrifuged at 4° C. (12000 g, 15 minutes) then dialysed and concentrated on Ultrafree™ Millipore ultrafiltration units (cut-off threshold 10 kDa). The retentates, taken up in distilled water, are crude extracts.
β-D-xylosidase activity assay according to the protocol of Lee and Zeikus (1993) after incubation of the enzyme extracts (2 to 4 μg of proteins) in sodium acetate buffer (0.1 M, pH 5), at 40° C. for a variable time (90 to 210 minutes), in the presence of p-nitrophenyl β-D-xylopyranoside (p-NPX) substrate (7.3 μM). After addition of Na2CO3 (0.1 M), the products released are assayed by spectrophotometry at 410 nm.
Evaluation of the experimental data. At least 2 kinetics were carried out per sample, and per set of experiments. The reaction rate (ΔA410 minutes^−1 for example) is obtained by linear regression from 4 kinetic curves. The results are expressed by the ratio R (enzymatic activity in elicited cells/enzymatic activity in non-elicited control cells).

[4] = system: Phospholipase D (E.C: 3.1.4.4); assay: Elicitation of phospholipase D activity (NBD-PE fluorescence); format: cell-based, Acer pseudoplatanus L.; conditions: for Optimal Plase D response (100% = non-elicited cells): at the optimal concentration
Description: Vegetable material: Acer pseudoplatanus L. cells in Suspension
Phospholipase D (E.C: 3.1.4.4) (Plase D) activity: this is a phosphatidylcholine phosphatidohydrolase which releases the O-R3 group, according to the diagram below. To the extent that O-R3 is marked (a fluorochrome for example), quantifying this group is equivalent to assaying Plase D activity. For the experiments the substrate used is phosphatidylcholine conjugated to a fluorochrome, i.e. the product nitrobenzoxadiazole phosphoethanolamine (NBD-PE). The retained excitation and emission wavelengths of the fluorochrome are 460 nm and 534 nm respectively. [drawing 5]
Principle: assaying Plase D activity is equivalent to estimating the fluorescence variation at 534 nm of a reaction medium with a spectrofluorimeter (Perkin Elmer).
Test: the reaction medium in a microtitration plate well is as follows: 1.3 10^7 Acer pseudoplatanus L. cells are incubated in a 50 mM HEPES buffer, pH 6.8 enriched with CaCl2 (1 μM), ATP (2 μM), octyl-D-glucoside 50 μM, GTP (6 μM) in the presence of the NBD-PE substrate (4 μM), in the presence or absence of an elicitor (0-100 nM): 2′-fucosyl-lactose (FL), compound A; XXFGol, compound B, in the presence or not in the presence of a methyl jasmonate effector (0-5 nM). The Plase D activity assay is carried out by measuring the fluorescence at 534 nm.
Evaluation of the experimental data. For each sample at least three kinetics are recorded; the Plase D activity is given by the slope of the regression curve. The results are expressed by Δ F534 min^−1. One point on the graph corresponds to the linear regression treatment of at least 2 kinetic curves originating from 2 different samples.
The Plase D elicitation response is evaluated according to the fluorescence variation at […]; the 100% reference value corresponds to the fluorescence in the controls (non-elicited cells)

SMILES | Peroxide accumulation, effect of temperature ([1]; 10 nM, 20° C., 15° C., 10° C.) | Elicitor dose of optimal response, generation of H2O2 ([1]; pyranine quenching) [nM] | Optimal response, generation of H2O2 (100% = non-elicited controls) ([1]; at the optimal dose) [%] | Elicitor dose of optimal response, cytochrome c reduction (superoxide anion) [2] [nM] | Cytochrome c reduction response (100% = non-elicited controls) [2] [%] | Optimal response, cytochrome c reduction (100% = non-elicited controls) [2] [%] | β-D-xylosidase response R (activity in elicited cells/non-elicited control cells), maximal [3] | β-D-xylosidase response [3] | β-D-xylosidase response R [3] | Elicitor concentration of optimal Plase D response [4] [nM] | Optimal Plase D response (100% = non-elicited cells) [4] [%] | Plase D elicitation: methyl jasmonate versus 2′-fucosyl lactose ([4]; methyl jasmonate 0 to 5 nM, 2′-fucosyl lactose 1 nM, dose-dependent)
C[C@@H]1O[C@@H](O[C@H]2[C@H](O[C@H]3[C@H](O)[C@@H](O)[C@H](O)O[C@@H]3CO)O[C@H](CO)[C@H](O)[C@@H]2O)[C@@H](O)[C@H](O)[C@@H]1O [compound A, α-L-Fuc(1→2)β-D-Gal(1→4)β-D-Glc] | lower at a low temperature | 10 | 225 | 50 | 187 | 200 | 9 | no significant response | 1 | 1 | 244 | antagonistic
CO[C@@H]1OC[C@@H](O)[C@H](O)[C@H]1O[C@@H]1O[C@H](CO)[C@H](O)[C@H](O)[C@H]1O[C@@H]1O[C@@H](C)[C@@H](O)[C@@H](O)[C@@H]1O [compound B, methyl α-L-Fuc (1→2)β-D-Gal (1→2)β-D-Xyl] |  |  |  | 15 | 160 | 159 | 5 | no significant response | 1 | 1.7 | 230 | 
